The values below come from US20030100572A1, “Novel pyridopyrimidones and uses thereof” (ARIAD PHARMACEUTICALS,INC., priority 2001, published 2003).

This data set can be described thus: Hydroxyapatite Assay (hydroxyapatite adsorption chromatography). The format is physicochemical. To be noted: corrected retention K=(retention time-void time)/void on TSK-Gel HA 1000 HPLC column; linear gradient 10 mM to 500 mM sodium phosphate, 0.15 N NaCl, pH 6.8. The source says:
Hydroxyapatite is the principal mineral component of bone. Hydroxyapatite adsorption chromatography is used as an assay to evaluate the bone-targeting potential of both individual bone-targeting moieties (“monomers”) and of pharmaceuticals incorporating bone-targeting groups.
The rentention time of the compound is expressed in terms of K=(retention time-void time)/void. This K value is corrected using two reference compounds to correct from inter-column and inter-system variation to obtain a K′ value.
Reference Compounds: K′ values were determined for known bone targeted compounds, the bisphosphonate, alendronate and tetracycline.

On to `NCCCC(O)(P(=O)(O)O)P(=O)(O)O` [Alendronate, alendronate], for which the “K′ value” is given as 3.7.
